Measurements: patent US20230234917A1, “ASPARAGINE DERIVATIVES AND METHODS OF USING SAME” (priority 2020, published 2023)

Legend:
[1] = target: Full-length WT ClbP (Escherichia coli, UniProt Q0P7K6); test: ClbP molecular (purified protein) enzymatic inhibition assay, fluorogenic substrate; assay type: biochemical, E. coli
[2] = target: T1, ClbP (Escherichia coli, UniProt Q0P7K6); test: ClbP cell lysate activity (inhibition) assay, fluorogenic substrate; assay type: biochemical; conditions: ClbP Lysate Inhibition Assay: IC50, E. coli ClbP+ lysozyme-EDTA lysates, 5 μM fluorogenic substrate, inhibitor 0-300 μM, 37° C., singlicate
How it was run: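 E. coli ClbP+ overnight culture lysed with lysozyme-EDTA (30 min, 37 °C); lysate (fivefold concentrated vs culture) mixed with inhibitor (0–300 μM, 4% DMSO) and 5 μM fluorogenic substrate. Fluorescence (ex 360/em 460 nm) read at 37 °C; 0–20 min rates normalized to no-inhibitor, three-parameter IC50 fit, singlicate.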

[3] = target: T1, ClbP; test: ClbP whole cell activity (inhibition) assay, fluorogenic substrate; assay type: cell-based, E. coli
How it was run: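 E. coli ClbP+ overnight culture washed and concentrated fivefold in PBS, mixed with inhibitor (0–300 μM, 4% DMSO) and 5 μM fluorogenic substrate at 37 °C. Fluorescence (ex 360/em 460 nm) read every 2 min for 46 min. Rates from 10–30 min normalized to no inhibitor and fit to a three-parameter IC50.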

SMILES | IC50 [1] [µM] | IC50 [2] [µM] | IC50 [3] [µM]
CCCCCCCC(=O)N[C@H](CC(N)=O)C(=O)NCCc1ccc(Cl)cc1 [Compound CXCIV] | < 100 | < 100 | < 100
CCCCCCCC(=O)N[C@H](CC(N)=O)C(=O)NCCc1ccc(OC)cc1 [Compound CXCIX] | < 100 | < 100 | < 100
CCCCCCCC(=O)N[C@H](CC(N)=O)[C@@H](O)CCCc1ccccc1 [Compound CXCI] | 100 to 300 | 100 to 300 | < 100
CCCCCCCC(=O)N[C@H](CC(N)=O)C(=O)NCCc1ccc(C(=O)O)cc1 [Compound CXCVIII] | < 100 | 100 to 300 | < 100
CCCCCCCC(=O)N[C@H](CC(N)=O)C(=O)NCCc1ccc(C(=O)OC)cc1 [Compound CXCVII] | < 100 | < 100 | < 100
CCCCCCCC(=O)N[C@H](CC(N)=O)C(=O)NCCc1ccc(C)cc1 [Compound CXCVI] | < 100 | < 100 | < 100
CCCCCCCC(=O)N[C@H](CC(N)=O)C(=O)NCCc1ccc(C(F)(F)F)cc1 [Compound CXCV] | 100 to 300 | > 300 | > 300
CCCCCCCC(=O)N[C@H](CC(N)=O)C(=O)NCCN1CCN(C)CC1 [Compound CXC] | 100 to 300 | > 300 | > 300
CCCCCCCC(=O)N[C@H](CC(N)=O)C(=O)NCCc1ccccc1 [Compound III] | < 100 | < 100 | < 100
CCCCCCCC(=O)N[C@@H](CNCCc1ccccc1)CC(N)=O [Compound IX] | 100 to 300 | > 300 | > 300
CCCCCCCC(=O)N[C@H](CC(N)=O)C(=O)O[C@@H](C)C(=O)OC [Compound LXXVI] | 100 to 300 | < 100 | < 100
CCCCCCCC(=O)N[C@](C)(CC(N)=O)C(=O)NCCc1ccccc1 [Compound LXX] | 100 to 300 | > 300 | > 300
CCCCCCCC(=O)N[C@@H](CNC(C)(C)C)CC(N)=O [Compound VIII] | < 100 | < 100 | < 100
CCCCCCCC(=O)N[C@H](CC(N)=O)c1nnn(C(C)(C)C)n1 [Compound XIX] | 100 to 300 | > 300 | > 300
CCCCCCCC(=O)N[C@H](CC(N)=O)c1nnn(CCc2ccccc2)n1 [Compound XVIII] | 100 to 300 | > 300 | > 300
CCCCCCCC(=O)N[C@H](CC(N)=O)CN(C)CCc1ccccc1 [Compound XVI] | < 100 | < 100 | > 300
CCCCCCCCCC(=O)N[C@@H]1CC(=O)NC1(O)C(=O)NCc1ccccc1 (stereo partly drawn) [Compound […]] | < 100 | 100 to 300 | 100 to 300
